Eight compounds from ChEMBL document CHEMBL1201862, “PubChem BioAssay data set” (2004) can be followed below.

The structures appear in SMILES notation.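 Five concentrations, 48 hours, 96-well plates. The concentration for 50% growth inhibition is given as GI50.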 Activity calls are given as the source filed them. Rule as the data show it: active = GI50 up to about 1.1 µM and inactive = higher.

Among the test systems are 786-0; CCRF-CEM; COLO 205; HCT-15; Hs-578T; KM12; MDA-N; MOLT-4; NCI-H226; OVCAR-4; PC-3; SF-268; SK-MEL-2; SNB-19; SNB-75; SW-620; TK-10; A498; SF-295.
Test in all cases: DTP human tumour cell line panel, 48 h

With `CC(C)CC(=O)NC(NC(C)C)(C(F)(F)F)C(F)(F)F`, the GI50 (commonly the concentration giving 50% growth inhibition) with 786-0 is > 100 µM (inactive); in the assay on CCRF-CEM, > 100 µM (inactive); with COLO 205, > 100 µM (inactive); with HCT-15, greater than 100 µM; with Hs-578T it was > 100 µM (inactive); in the assay on KM12, > 100 µM (inactive). Further, the GI50 in the assay on MDA-N, in the assay with MOLT-4, in the assay on NCI-H226, with OVCAR-4, with PC-3 and in the assay on SF-268 was > 100 µM (inactive) throughout. Further, the GI50 in the assay on SK-MEL-2, in the assay on SNB-19, with SNB-75, in the assay with SW-620 and in the assay on TK-10 was > 100 µM (inactive) throughout.
As for `CNC(=O)OCCN1c2ccccc2Sc2ccccc21`, the GI50 with 786-0 was > 100 µM (inactive); in the assay on A498, 57.5 µM (inactive); in the assay on CCRF-CEM, > 100 µM (inactive); in the assay with COLO 205, > 100 µM (inactive); in the assay on HCT-15 it was greater than 100 µM; in the assay on Hs-578T it was > 100 µM (inactive). The GI50 in the assay with KM12 was > 100 µM (inactive); with MDA-N, > 100 µM (inactive); with MOLT-4, > 100 µM (inactive); with NCI-H226 it was 47.9 µM (inactive); in the assay with OVCAR-4, > 100 µM (inactive); in the assay on PC-3, 46.6 µM (inactive). Further, the GI50 was > 100 µM (inactive) in the assay on SF-268; 60.8 µM (inactive) in the assay with SF-295; > 100 µM (inactive) with SNB-19; > 100 µM (inactive) in the assay on SW-620; > 100 µM (inactive) in the assay on TK-10.
As for `N#CC(Cc1ccccc1Br)N(CCC1=CCCCC1)C(c1ccccc1)c1ccccc1` (stereo not given), the GI50 was > 100 µM (inactive) in the assay on 786-0; > 100 µM (inactive) with A498; 50.8 µM (inactive) in the assay on COLO 205; 50.2 µM in the assay with HCT-15; > 100 µM (inactive) with Hs-578T; 64.9 µM (inactive) in the assay with KM12. For the same compound, the GI50 is 41.4 µM (inactive) with MDA-N; 72.3 µM (inactive) in the assay with MOLT-4; 94 µM (inactive) with OVCAR-4; > 100 µM (inactive) in the assay on PC-3; > 100 µM (inactive) in the assay on SF-268; 58.7 µM (inactive) in the assay on SF-295. In addition, the GI50 in the assay with SK-MEL-2 was > 100 µM (inactive); in the assay on SNB-19 it was > 100 µM (inactive); with SNB-75, > 100 µM (inactive); in the assay on SW-620 it was 73.8 µM (inactive); in the assay with TK-10, > 100 µM (inactive).
Regarding `COc1cc2c(cc1Cl)[n+]([O-])c(C#N)c(N1CCN(c3ccc([N+](=O)[O-])cc3)CC1)[n+]2[O-]`, the GI50 is 12.7 µM (inactive) with 786-0; 8.73 µM (inactive) in the assay with CCRF-CEM; 34.4 µM (inactive) in the assay with COLO 205; 11.1 µM with HCT-15; 10.3 µM (inactive) in the assay with Hs-578T; 21.9 µM (inactive) with KM12. For the same compound, the GI50 with MDA-N was 24 µM (inactive); in the assay with MOLT-4, 5 µM (inactive); in the assay on NCI-H226, > 100 µM (inactive); in the assay with OVCAR-4 it was 30 µM (inactive); in the assay with PC-3 it was 17.9 µM (inactive); with SF-268, 13.1 µM (inactive). The GI50 is 12.4 µM (inactive) with SF-295; 49.3 µM (inactive) in the assay with SK-MEL-2; 32 µM (inactive) in the assay with SNB-19; 17.4 µM (inactive) in the assay with SNB-75; 22.5 µM (inactive) in the assay with SW-620; 27.3 µM (inactive) in the assay on TK-10.
For `O=C(CCCCCNC(=O)c1ccc(Cl)cc1)NO`, the GI50 with 786-0 was 7.03 µM (inactive); with CCRF-CEM it was 2.42 µM (inactive); in the assay with COLO 205, 2.99 µM (inactive); in the assay on HCT-15 it was 15.3 µM; in the assay with Hs-578T it was 8.99 µM (inactive); in the assay with KM12 it was 6.59 µM (inactive). The GI50 in the assay on MDA-N was 2.96 µM (inactive); with MOLT-4, 1.88 µM (inactive); with NCI-H226, 15.8 µM (inactive); in the assay with OVCAR-4, 20.6 µM (inactive); in the assay on PC-3, 2.86 µM (inactive); in the assay with SF-268, 6.87 µM (inactive). The GI50 in the assay with SF-295 is 8.91 µM (inactive); in the assay on SK-MEL-2, 2.33 µM (inactive); with SNB-19, 15 µM (inactive); in the assay on SNB-75, 1.49 µM (inactive); in the assay on SW-620, 2.82 µM (inactive); with TK-10 it was 3.49 µM (inactive).
Turning to `Cc1noc(NS(=O)(=O)c2ccc(NC(=O)c3ccc4[nH]c5ccccc5c(=O)c4c3)cc2)c1C`, the GI50 with 786-0 is 46.2 µM (inactive); in the assay on CCRF-CEM, 23.7 µM (inactive); with COLO 205 it was 37.2 µM (inactive); in the assay with HCT-15 it was greater than 100 µM; with Hs-578T it was 42 µM (inactive); in the assay on KM12, 36.1 µM (inactive). Further, the GI50 was 57.8 µM (inactive) in the assay with MDA-N; 21.9 µM (inactive) in the assay on MOLT-4; > 100 µM (inactive) in the assay on NCI-H226; 39.4 µM (inactive) with OVCAR-4; 36.1 µM (inactive) in the assay on PC-3; 40.7 µM (inactive) in the assay on SF-268. Moreover, the GI50 in the assay with SF-295 is 42.2 µM (inactive); with SK-MEL-2 it was 32.1 µM (inactive); with SNB-19, 87.9 µM (inactive); in the assay with SNB-75 it was 32.1 µM (inactive); in the assay with SW-620, > 100 µM (inactive); in the assay with TK-10, > 100 µM (inactive).
For `COc1cc(O)c(C(=O)/C=C/c2ccc(O)cc2)cc1Oc1ccc(/C=C/C(=O)c2ccc(O)cc2O)cc1` [RHUSCHALCONE III], the GI50 is 8.73 µM (inactive) in the assay on 786-0; 6.93 µM (inactive) in the assay with A498; 7.29 µM (inactive) in the assay with CCRF-CEM; 8.43 µM (inactive) in the assay with COLO 205; 8.85 µM in the assay with HCT-15; 14.4 µM (inactive) in the assay with Hs-578T. The GI50 in the assay with KM12 was 6.75 µM (inactive); in the assay on MDA-N, 8.93 µM (inactive); in the assay on MOLT-4 it was 11.3 µM (inactive); with OVCAR-4, 8.07 µM (inactive); in the assay on PC-3 it was 7.21 µM (inactive); in the assay with SF-268, 8.81 µM (inactive). Further, the GI50 was 10.1 µM (inactive) with SF-295; 10.1 µM (inactive) in the assay with SK-MEL-2; 12.9 µM (inactive) in the assay with SNB-19; 12.6 µM (inactive) in the assay on SNB-75; 11.2 µM (inactive) in the assay on SW-620; 9.79 µM (inactive) with TK-10.
Take `CCCCC[C@@H]1OC(=O)[C@@]2(CC3c4ccccc4C2c2ccccc23)[C@H]1C(=O)OC`: the GI50 with 786-0 was 67.3 µM (inactive); with A498, 13.4 µM (inactive); in the assay with CCRF-CEM it was 17.2 µM (inactive); with COLO 205, 14.2 µM (inactive); in the assay on HCT-15, 29.9 µM; with Hs-578T it was > 100 µM (inactive). The GI50 was 45.7 µM (inactive) in the assay with KM12; 79.6 µM (inactive) in the assay with MDA-N; > 10 µM (inactive) with MOLT-4; 58.2 µM (inactive) in the assay with OVCAR-4; 14.6 µM (inactive) with PC-3; > 100 µM (inactive) in the assay on SF-268. The GI50 with SF-295 was 71 µM (inactive); in the assay with SK-MEL-2, 28.4 µM (inactive); with SNB-19, > 100 µM (inactive); with SW-620, 52 µM (inactive); in the assay with TK-10, 35.9 µM (inactive).
